# Laboratory results taken from patent US10316039B2, “P2X3 and/or P2X2/3 compounds and methods” (Asana Biosciences, LLC, priority 2013, dated 2019).
# Tests used:
# P2X2/3 = biological target: T1, P2X2/3 (Homo sapiens, UniProt P56373+Q9UBL9); experiment: P2X2/3 FLIPR intracellular calcium assay; type: cell-based; conditions: agonist at EC75, species (human or rat) not given
# T1 sequence (Q9UBL9 1-471): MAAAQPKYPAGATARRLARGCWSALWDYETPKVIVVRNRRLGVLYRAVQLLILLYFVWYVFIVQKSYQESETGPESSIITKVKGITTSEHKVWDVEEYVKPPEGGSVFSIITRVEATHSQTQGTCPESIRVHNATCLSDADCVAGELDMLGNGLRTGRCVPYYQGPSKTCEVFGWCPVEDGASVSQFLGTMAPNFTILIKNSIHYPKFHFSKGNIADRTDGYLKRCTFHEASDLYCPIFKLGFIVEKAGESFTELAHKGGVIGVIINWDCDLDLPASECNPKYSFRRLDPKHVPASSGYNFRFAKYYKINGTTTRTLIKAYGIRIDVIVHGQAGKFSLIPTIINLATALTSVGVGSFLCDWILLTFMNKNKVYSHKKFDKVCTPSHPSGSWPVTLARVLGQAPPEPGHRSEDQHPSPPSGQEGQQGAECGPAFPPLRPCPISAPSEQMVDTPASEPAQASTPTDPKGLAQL
# T1 sequence (P56373 1-397): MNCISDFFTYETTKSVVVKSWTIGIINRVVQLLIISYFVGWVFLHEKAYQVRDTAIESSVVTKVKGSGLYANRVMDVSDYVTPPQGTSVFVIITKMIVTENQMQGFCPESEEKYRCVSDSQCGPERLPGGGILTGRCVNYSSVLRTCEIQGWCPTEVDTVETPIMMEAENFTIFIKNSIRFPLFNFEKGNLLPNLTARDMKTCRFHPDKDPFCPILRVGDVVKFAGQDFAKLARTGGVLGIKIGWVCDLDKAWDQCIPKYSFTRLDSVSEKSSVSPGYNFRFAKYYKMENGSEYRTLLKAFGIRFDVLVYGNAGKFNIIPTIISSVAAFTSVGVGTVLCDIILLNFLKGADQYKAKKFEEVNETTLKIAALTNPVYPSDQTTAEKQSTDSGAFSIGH
# From the text: The FLIPR® assay utilizes cells which express human or rat P2X3 or P2X2/3 receptors. Recombinant cells expressing hP2X3 (Cat#6188) and hP2X2/3 (Cat#6179) were procured from Chantest Corp. Rat P2X2 (NCBI Accession No: U14414) was amplified by PCR from PC12 cDNA (a rat adrenal medulla cell line). The PCR product obtained containing the protein coding sequence of rat P2X2 was cloned into EcoRV-digested and dephosphorylated vector pIRES-puro3 within the multiple cloning site (MCS). See, FIG. 1A.
# (§1) Transfection was carried out using super-coiled constructs (purified using QIAGEN kit) in antibiotic free, serum free DMEM using Lipofectamine® 2000 (Invitrogen) transfection agent. The DNA constructs rat P2X2 in pIRES-Puro3 and rat P2X3 in pCDNA5/TO were co-transfected into TRex293 cells in order to generate the rP2X2/3 stable line. 50 μg/mL hygromycin (Invitrogen) and 0.5 μg/mL puromycin (Fermentek) were used for selection of stable clones of rP2X2/3. Rat P2X3 in pCDNA5/TO DNA construct was transfected to CHO-TRex cells to generate the rP2×3 stable line and 500 μg/mL hygromycin (Invitrogen) was used as selection antibiotic. Transfected stable colonies were then functionally verified and robust clones suitable for assay were clonally purified through dilutions.
# (§2) Cryo-vial containing 6×10^6 cells (human P2X3-HEK/human P2X2/3-TRex293/rat P2X2/3-TRex293/rat P2X3 TRex-CHO) was thawed in a 37° C. water bath. Cells were suspended in 20 mL of respective cell plating media (See annexure for composition) in a 50 mL centrifuge tube. The cell viability was checked with the help of Trypan Blue dye. Upon washing, cells were plated in a black 384-well clear bottomed, sterile poly-D-lysine coated plate such that, each well contained 10,000 cells (15,000/well for hP2X3) in 30 μL cell plating media. The plate was incubated in a 5% CO2 incubator at 37° C. for 24 h.
# (§3) The next day, prior to the assay, the cell plating media was removed from each well by decanting and gentle tapping. Thirty μL of FLIPR Calcium 4 dye solution was added to each well. The plate was incubated at 37° C. for 45 min (60 min for hP2X3). The plate was next equilibrated at room temperature for 15 minutes before placing it in a 384 well FLIPR for the assay.
# Compounds were dissolved in DMSO and serially diluted following 11 point half log (3.16 fold) dilution with a starting concentration of 2 mM. Dilutions were mixed with assay buffer just before performing the assay.
# (§4) Compounds were added to the respective wells of the assay-ready cell plate with the help of the FLIPR and fluorescence readings were captured for 5 min to observe any possible agonistic property of the compounds. The plate was then incubated at room temperature for 15 min. The cells were stimulated with respective agonist EC75 concentration and the fluorescence readings were captured for another 5 min by FLIPR. The difference in fluorescence readings in presence of the compounds were compared with that of the control wells (wells having no compound) to calculate the inhibitory potency of the compounds. The IC50 values of the compounds were determined using the Graph pad Prism software.
# (ii) Cell Plating Media for hP2X3-HEK and hP2X2/3-TRex293 Cells • DMEM/F12 (1:1) HAM media (Invitrogen; Cat#11039) • 1×NEAA (Invitrogen; Cat#11140) • 25 mM HEPES (Invitrogen; Cat#15630) • 1 mM sodium pyruvate (Invitrogen; Cat#11360) • 10% tetracycline negative FBS (PAA; Cat# A15-209) • 1 μg/mL doxycycline (Clontech; Cat#63131) [for hP2X2/3-TRex293 cells only]
# (iii) Cell Plating Media for rP2X2/3-TRex293 Cells • DMEM media (Invitrogen; Cat#11965) • 25 mM HEPES (Invitrogen; Cat#15630) • 10% tetracycline negative FBS (PAA; Cat# A15-209) • 1 μg/mL Doxycycline (Clontech; Cat#63131)
# (v) Assay Buffer Composition • HBSS (Invitrogen Cat#14025) • 20 mM HEPES (Invitrogen Cat#15630) • 0.01% F127 (Sigma Cat# P2443) • 1.8 mM CaCl2 (Sigma Cat# C5080) • pH adjusted to 7.4 […]
# P2X3 = biological target: T2, P2X3 (UniProt P56373); experiment: P2X3 FLIPR intracellular calcium assay; type: cell-based; conditions: agonist at EC75, species (human or rat) not given
# T2 sequence (P56373 1-397): T1 sequence (P56373 1-397)
# From the text: The FLIPR® assay utilizes cells which express human or rat P2X3 or P2X2/3 receptors. […] The PCR product obtained containing the protein coding sequence of rat P2X2 was cloned into EcoRV-digested and dephosphorylated vector pIRES-puro3 within the multiple cloning site (MCS). See, FIG. 1A.
# Rat P2X3 (NCBI Accession No: X91167) was amplified by PCR from rat brain cDNA. The PCR product obtained containing the protein coding sequence of rat P2X3 was cloned into EcoRV-digested and dephosphorylated vector pCDNA-Hygro within the multiple cloning site (MCS) (FIG. 1B). Rat P2X3 cloned into pcDNA-Hygro was then subcloned into pcDNA-5/TO at HindIII (5′) and XhoI (3′) sites within the multiple cloning site (MCS) of the vector (FIG. 1C).
# as §1, §2, §3
# Dilutions were mixed with assay buffer just before performing the assay.
# as §4
# (vi) Dye Solution Composition • 1×FLIPR Calcium 4 dye in assay buffer (Molecular devices Cat# R8141) • 1.8 mM Probenecid (Sigma Cat# P8761) • pH adjusted to 7.4
smiles,measurement,setting,value
"Cc1ccc(-c2cnc3c(-n4nncc4C(F)F)cc(C(=O)N[C@@H](C)c4nnco4)cn23)s1 [Example 14, (S)—N-(1-(1,3,4-Oxadiazol-2-yl)ethyl)-8-(5-(difluoromethyl)-1H-1,2,3-triazol-1-yl)-3-(5-methylthiophen-2-yl)imidazo[1,2-a]pyridine-6-carboxamide]",IC50,P2X2/3,0.1 to 1 µM
same,IC50,P2X3,0.001 to 0.1 µM
"Cc1ccccc1-c1cnc2c(N3CCC(C)CC3)cc(C(=O)N[C@@H](C)c3nnc[nH]3)cn12 [Example 15, (S)—N-(1-(4H-1,2,4-Triazol-3-yl)ethyl)-8-(4-methylpiperidin-1-yl)-3-(o-tolyl)imidazo[1,2-a]pyridine-6-carboxamide]",IC50,P2X2/3,1 to 10 µM
same,IC50,P2X3,0.1 to 1 µM
"Cc1ccc(CNC(=O)c2cc(-n3nnnc3C3CC3)c3ncc(-c4ccc(C)s4)n3c2)cn1 [Example 16, 8-(5-Cyclopropyl-1H-tetrazol-1-yl)-N-((6-methylpyridin-3-yl)methyl)-3-(5-methylthiophen-2-yl)imidazo[1,2-a]pyridine-6-carboxamide]",IC50,P2X2/3,0.1 to 1 µM
same,IC50,P2X3,> 10 µM
"Cc1ccc(CNC(=O)c2cc(-n3nnnc3CO)c3ncc(-c4ccc(C)s4)n3c2)cn1 [Example 17, 8-(5-(Hydroxymethyl)-1H-tetrazol-1-yl)-N-((6-methylpyridin-3-yl)methyl)-3-(5-methylthiophen-2-yl)imidazo[1,2-a]pyridine-6-carboxamide]",IC50,P2X2/3,0.1 to 1 µM
same,IC50,P2X3,0.1 to 1 µM
"Cc1ccc(CNC(=O)c2cc(-n3nnnc3C(F)F)c3ncc(-c4ccc(C)s4)n3c2)cn1 [Example 18, 8-(5-(Difluoromethyl)-1H-tetrazol-1-yl)-N-((6-methylpyridin-3-yl)methyl)-3-(5-methylthiophen-2-yl)imidazo[1,2-a]pyridine-6-carboxamide]",IC50,P2X2/3,0.001 to 0.1 µM
same,IC50,P2X3,0.001 to 0.1 µM
"Cc1ccc(-c2cnc3c(N(C)C(=O)C(C)C)cc(C(=O)N[C@@H](C)c4nnc[nH]4)cn23)s1 [Example 20, (S)—N-(1-(4H-1,2,4-Triazol-3-yl)ethyl)-8-(N-methylisobutyramido)-3-(5-methylthiophen-2-yl)imidazo[1,2-a]pyridine-6-carboxamide]",IC50,P2X2/3,0.1 to 1 µM
same,IC50,P2X3,0.001 to 0.1 µM
CCc1nnc(-c2cc(C(=O)NCc3ccc(C)nc3)cn3c(-c4ccc(C)s4)cnc23)o1 [Example 21],IC50,P2X2/3,0.1 to 1 µM
same,IC50,P2X3,0.001 to 0.1 µM
CCc1cnnn1-c1cc(C(=O)N[C@@H](C)c2nnc[nH]2)cn2c(-c3ccc(C)s3)cnc12 [Example 23],IC50,P2X2/3,0.1 to 1 µM
same,IC50,P2X3,0.001 to 0.1 µM
CCc1cnnn1-c1cc(C(=O)NCc2cnc(C)cn2)cn2c(-c3ccc(C)s3)cnc12 [Example 24],IC50,P2X2/3,0.001 to 0.1 µM
same,IC50,P2X3,0.001 to 0.1 µM
Cc1ccc(CNC(=O)c2cc(-n3nncc3C3CC3)c3ncc(-c4ccc(C)s4)n3c2)cn1 [Example 25],IC50,P2X2/3,0.001 to 0.1 µM
same,IC50,P2X3,0.001 to 0.1 µM
Cc1ccc(-c2cnc3c(-n4nncc4C(F)(F)F)cc(C(=O)N[C@@H](C)c4nnc[nH]4)cn23)s1 [Example 26],IC50,P2X2/3,0.001 to 0.1 µM
same,IC50,P2X3,0.001 to 0.1 µM
Cc1ccc(CNC(=O)c2cc(-n3nncc3C)c3ncc(-c4ccc(C)s4)n3c2)cn1 [Example 28],IC50,P2X2/3,0.001 to 0.1 µM
same,IC50,P2X3,0.001 to 0.1 µM
Cc1ccc(-c2cnc3c(-n4nncc4C)cc(C(=O)N[C@@H](C)c4nnc[nH]4)cn23)s1 [Example 29],IC50,P2X2/3,0.1 to 1 µM
same,IC50,P2X3,0.001 to 0.1 µM
Cc1ccc(CNC(=O)c2cc(-n3nncc3C(F)(F)F)c3ncc(-c4ccc(C)s4)n3c2)cn1 [Example 30],IC50,P2X2/3,0.001 to 0.1 µM
same,IC50,P2X3,0.001 to 0.1 µM
Cc1ncc(CNC(=O)c2cc(-n3nncc3C(F)F)c3ncc(-c4ccc(C)s4)n3c2)cn1 [Example 31],IC50,P2X2/3,0.001 to 0.1 µM
same,IC50,P2X3,0.001 to 0.1 µM
Cc1cnc(CNC(=O)c2cc(-n3nncc3C(F)F)c3ncc(-c4ccc(C)s4)n3c2)cn1 [Example 32],IC50,P2X2/3,0.001 to 0.1 µM
same,IC50,P2X3,0.001 to 0.1 µM
CCc1cnnn1-c1cc(C(=O)NCc2cnc(C)nc2)cn2c(-c3ccc(C)s3)cnc12 [Example 33],IC50,P2X2/3,0.001 to 0.1 µM
same,IC50,P2X3,0.001 to 0.1 µM
Cc1ccc(-c2cnc3c(-n4nncc4C4CC4)cc(C(=O)N[C@@H](C)c4nnc[nH]4)cn23)s1 [Example 34],IC50,P2X2/3,0.001 to 0.1 µM
same,IC50,P2X3,0.001 to 0.1 µM
COc1ncc(CNC(=O)c2cc(-n3nncc3C(F)F)c3ncc(-c4ccc(C)s4)n3c2)cn1 [Example 35],IC50,P2X2/3,0.001 to 0.1 µM
same,IC50,P2X3,0.001 to 0.1 µM
Cc1ccc(CNC(=O)c2cc(-n3nncc3C(F)F)c3ncc(-c4ncc(C)s4)n3c2)cn1 [Example 36],IC50,P2X2/3,0.001 to 0.1 µM
same,IC50,P2X3,0.001 to 0.1 µM
Cc1ccc(-c2cnc3c(-n4nncc4C(C)C)cc(C(=O)N[C@@H](C)c4nnc[nH]4)cn23)s1 [Example 37],IC50,P2X2/3,0.001 to 0.1 µM
same,IC50,P2X3,0.001 to 0.1 µM
Cc1ncc(CNC(=O)c2cc(-n3nncc3C(F)(F)F)c3ncc(-c4ccc(C)s4)n3c2)cn1 [Example 39],IC50,P2X2/3,0.001 to 0.1 µM
same,IC50,P2X3,0.001 to 0.1 µM
Cc1ncc(CNC(=O)c2cc(-n3nncc3C(C)C)c3ncc(-c4ccc(C)s4)n3c2)cn1 [Example 40],IC50,P2X2/3,0.001 to 0.1 µM
same,IC50,P2X3,> 10 µM
Cc1ncc(CNC(=O)c2cc(-n3nncc3C3CC3)c3ncc(-c4ccc(C)s4)n3c2)cn1 [Example 41],IC50,P2X2/3,0.001 to 0.1 µM
same,IC50,P2X3,0.001 to 0.1 µM
COc1ncc(CNC(=O)c2cc(-n3nncc3C3CC3)c3ncc(-c4ccc(C)s4)n3c2)cn1 [Example 42],IC50,P2X2/3,0.001 to 0.1 µM
same,IC50,P2X3,0.001 to 0.1 µM
